Test results from PMC4790291, “Short, Synthetic Cationic Peptides Have Antibacterial Activity against Mycobacterium smegmatis by Forming Pores in Membrane and Synergizing with Antibiotics” (Antibiotics, 2015).
In brackets after ≈: the same amount, converted by molar mass. Several values for one entry are separate records, joined by “and”; a condition that tells them apart may be missing. Equal values may be shown once. Read-outs that look alike come from different tables or passages of the source. Positions of bridges follow the written chain, without caps; N, C: chain ends. Non-standard residues stand in square brackets, D forms with d. Residues, ends and D or L forms follow the SMILES beside them. No end group written: not given here. *: point of attachment. X1 = CC[C@H](C)CCCCC(=O)*; Dab = NCC[C@H](N)C(=O)O

Columns and labels:
[1] = cited from earlier work
M. smegmatis [2] = settings: for FIC (peptide) / FIC (antibiotic): MIC in combination/MIC alone; for FICI: FICI ≤ 0.5 synergy, 0.5-1.0 additive, 1.0-4.0 indifferent, > 4.0 antagonism; for MIC Alone / MIC Combined (antibiotic): checkerboard; for MIC Alone: 37 °C, about 10^5 CFU/mL, single agent
M. smegmatis mc^2155 [3] = system: M. smegmatis mc^2155
Experimental: (§1) The antimicrobial activity for each peptide was determined through 3 h incubation time. The appropriate dilutions of each well were plated in triplicate and the extent of killing for the peptides were determined.
(§2) Briefly, 1 × 10^5 CFU per well of bacteria were incubated with different peptide concentrations in a 50 μL solution of Buffer Q consisting of 10 mM potassium phosphate buffer at pH 7.2 and 0.1% MB7H9 (3 h, 37 °C). Serial dilutions were then prepared in Buffer Q and plated in triplicate on MB7H9 plates, which were incubated (37 °C, 24 to 48 h) and CFUs counted. […] EC50 values were determined by plotting percent killing as a function of the log of peptide concentration (log μg/mL), and fitting the data from the antimicrobial assays to a standard sigmoidal dose-response curve, using Equation (1), where Y corresponds to bacterial killing (%) at a given peptide concentration (μg/mL), with X being the logarithm of that concentration (log μg/mL). In the equation, “Top” and “Bottom” refer to the upper and lower boundaries, and were constrained to values <100% and >0%, respectively.

M. tuberculosis [4] = settings: LL-37 ref 30; hBD3 ref 33; cited from earlier work
Experimental: While the EC50 experiments are typically carried out in 10 mM phosphate buffer with pH 7.2 for 3 h, the Minimal Inhibitory Concentration (MIC) is determined in bacterial broth (resulting in a higher salt concentration) with a 48 h incubation. We confirmed the sensitivity of M. smegmatis to common antibiotics such as polymyxin B, rifampicin, and fosmidomycin [35, 36, 37]. […] The reported MIC of full-length hBD ...

M. smegmatis [5] = assay: Ethidium bromide uptake assay (membrane permeation); settings: 50 μg/mL peptide, 10 μM ethidium bromide, examined at 20 min, 37 °C, n = 3, Figure 2
Experimental: Bacterial cytoplasmic membrane permeation is monitored by using the ethidium bromide uptake assay. […] M. smegmatis is grown until log phase in MB7H9 (Difco) broth with 2% (w/v) glucose as the carbon source, and 0.05% (v/v) Tween 80 in a shaking incubator (37 °C). Bacteria is centrifuged, washed with PBS, and then adjusted to an OD 600 nm of 0.1 Phosphate Buffer. 180 μL of bacteria is added to 10 μL ethidium bromide (10 μM final concentration) and 10 μL peptide in various concentrations, the experiment was performed in triplicate. The plate is read in a Tecan Safire^2 spectrofluorometer every 2 min for 30 min at 37 °C: (excitation = 540 nm, emission = 590 nm). Peak RFU at 20 min is used in Figure 2, and values were analyzed against wells with no peptide treatment with a Student’s t-test.
Permeablization of membrane after 20 min was compared. Experiments were performed in triplicate (n = 3).

M. smegmatis membrane = assay: Bacterial cytoplasmic membrane depolarization assay, DiSC3(5); assay type: cell-based, Mycobacterium smegmatis
Experimental: Membrane depolarization assay was studied using DiSC3(5) as previously reported. Depolarization of a membrane can be visualized by a […] in fluorescence. After interaction with intact cytoplasmic membrane, the fluorescent probe DiSC3(5) was quenched. After incubation with the antimicrobial peptide, the membrane potential was lost, and the probe was released to the medium, ensuing in an increase of fluorescence that can be quantified and monitored as a function of time. In brief, enumerated frozen bacteria were pelleted and washed twice in phosphate buffer (pH 7.2) and then resuspended to 4 × 10^7 CFU/mL in phosphate buffer containing 50 μg/mL DiSC3(5). Then, 100 uLs of this suspension was added to wells of a black 96-well plate. The plate was incubated in a TECAN Safire2 spectrofluorometer and monitored until fluorescence leveled off. Next, 100 μLs of various concentrations of peptide in phosphate buffer (pH 7.2) were added to each well. Bacteria without peptide and peptide without bacteria served as controls. The plate was immediately returned to the spectrofluorometer. Readings were taken every 15 s for 5 min (excitation = 622 nm; emission = 670 nm).
Figure 1 Membrane depolarization activity by LL-37, mCRAMP, hBD3-Pep4, ATRA-1A, ATRA-2, and NA-CATH. Depolarization determined using DiSC3(5) (50 μg/mL) at multiple concentrations of peptide (50, 25, 5, and 0.5 μg/mL). […]

M. smegmatis [6] = system: M. smegmatis; parameters: method as in earlier work; settings: 10 μg/mL of LL-37; ref 9 (Sonawane et al.); cited from earlier work
M. tuberculosis [7] = settings: 100 μg/mL of peptide; cited from earlier work
M. smegmatis [8] = settings: for MIC: 48 h
M. smegmatis mc^2155 [9] = assay: microbe, parasite or virus in culture; settings: Mycolicibacterium smegmatis, MC^2155, 3 h
Experimental: as §1, §2

M. smegmatis [10] = assay: microbe, parasite or virus in culture; settings: Mycolicibacterium smegmatis, 72 h, read-out: MIC Alone
M. smegmatis [11] = assay: microbe, parasite or virus in culture; settings: Mycolicibacterium smegmatis, 48 h
[12] = in combination with polymyxin B
[13] = peptide combined with polymyxin B
[14] = same assay as μg/mL value, 3 h, 10 mM phosphate buffer
[15] = from MIC in μM, above 1 = less potent than rifampicin
[16] = from EC50 in μM, above 1 = more potent than rifampicin

KRAKKFFKKLK-NH2 [ATRA-1A]
Hemolysis ([1]; compared to PBS (pH 7)): did not elicit statistically significant hemolysis
FIC (peptide) (M. smegmatis [2]; [12]): 0.12
FICI (M. smegmatis [2]; [13]): 0.37
FICI (M. smegmatis [2]; peptide combined with rifampicin): 0.56
EC50 (M. smegmatis mc^2155 [3]; [14]): 35 nM

CC[C@H](C)[C@H](NC(=O)[C@H](CCCCN)NC(=O)[C@H](CCC(=O)O)NC(=O)[C@H](CCCCN)NC(=O)[C@H](CO)NC(=O)[C@H](CCCCN)NC(=O)[C@H](CCCNC(=N)N)NC(=O)[C@H](Cc1ccccc1)NC(=O)[C@H](Cc1ccccc1)NC(=O)[C@H](CC(=O)O)NC(=O)CNC(=O)[C@H](CC(C)C)NC(=O)[C@@H](N)CC(C)C)C(=O)NCC(=O)N[C@@H](CCCCN)C(=O)N[C@@H](CCC(=O)O)C(=O)N[C@@H](Cc1ccccc1)C(=O)N[C@@H](CCCCN)C(=O)N[C@@H](CCCNC(=N)N)C(=O)N[C@H](C(=O)N[C@H](C(=O)N[C@@H](CCC(N)=O)C(=O)N[C@@H](CCCNC(=N)N)C(=O)N[C@H](C(=O)N[C@@H](CCCCN)C(=O)N[C@@H](CC(=O)O)C(=O)N[C@@H](Cc1ccccc1)C(=O)N[C@@H](CC(C)C)C(=O)N[C@@H](CCCNC(=N)N)C(=O)N[C@@H](CC(N)=O)C(=O)N[C@@H](CC(C)C)C(=O)N[C@H](C(=O)N1CCC[C@H]1C(=O)N[C@@H](CCCNC(=N)N)C(=O)N[C@H](C(=O)N[C@@H](CCC(=O)O)C(=O)N[C@@H](CO)C(=O)O)[C@@H](C)O)C(C)C)[C@@H](C)CC)C(C)C)[C@@H](C)CC [LL-37]
MIC against M. tuberculosis (M. tuberculosis [4]): 5 µg/mL (≈ 1.11 µM)
Extent of permeabilization (ethidium bromide uptake) (M. smegmatis [5]): very efficient
Membrane depolarization (M. smegmatis membrane; DiSC3(5) 50 μg/mL, within 1 min, peptide 50, 25, 5 and 0.5 μg/mL, phosphate buffer pH 7.2, n = 6, Figure 1): > 70%
Lowest concentration that depolarizes the M. smegmatis membrane (M. smegmatis membrane; DiSC3(5), p < 0.001): ≤ 0.5 µg/mL
Intracellular killing (M. smegmatis [6]): 50%
Killing of M. tuberculosis (M. tuberculosis [7]): 65%
MIC Alone (M. smegmatis [2]; 72 h): 31.3 µg/mL
FIC (peptide) (M. smegmatis [2]; [12]): 0.12
FIC (peptide) (M. smegmatis [2]; in combination with rifampicin): 0.12
FICI (M. smegmatis [2]; [13]): 0.37
Fold vs. Rifampicin (μM) (M. smegmatis [8]; [15]): 0.85
EC50 (M. smegmatis mc^2155 [3]; 1 × 10^5 CFU per well, 10 mM potassium phosphate buffer pH 7.2 with 0.1% MB7H9, 3 h, 37 °C, CFU plated in triplicate, sigmoidal fit): 0.27 µg/mL
Fold vs. Rifampicin (M. smegmatis mc^2155 [3]; [16]): 2.65
EC50 (M. smegmatis mc^2155 [3]; [14]): 60 nM

CC[C@H](C)CCCCC(=O)N[C@@H](CCN)C(=O)N[C@H](C(=O)N[C@@H](CCN)C(=O)N[C@H]1CCNC(=O)[C@H]([C@@H](C)O)NC(=O)[C@H](CCN)NC(=O)[C@H](CCN)NC(=O)[C@H](CC(C)C)NC(=O)[C@@H](Cc2ccccc2)NC(=O)[C@H](CCN)NC1=O)[C@@H](C)O [Polymyxin B] (X1-[Dab]T[Dab][Dab][Dab][dF]L[Dab][Dab]T; lactam 4-C (inferred); N-terminus assumed)
MIC Alone (M. smegmatis [2]; 72 h): 7.8 µg/mL
Fold vs. Rifampicin (μM) (M. smegmatis [8]): 1.26
MIC (M. smegmatis [8]): 5.99 µM (≈ 7.21 µg/mL)
Fold vs. Rifampicin (M. smegmatis mc^2155 [3]): 1.65
EC50 (M. smegmatis mc^2155 [3]; mc^2155, 3 h): 96 nM

CO[C@H]1/C=C/O[C@@]2(C)Oc3c(C)c(O)c4c(O)c(c(/C=N/N5CCN(C)CC5)c(O)c4c3C2=O)NC(=O)/C(C)=C\C=C\[C@H](C)[C@H](O)[C@@H](C)[C@@H](O)[C@@H](C)[C@H](OC(C)=O)[C@@H]1C [Rifampicin]
EC50 (M. smegmatis mc^2155 [9]): 159 nM
EC50 (M. smegmatis mc^2155 [9]; pH 7.2): 0.13 µg/mL
MIC (M. smegmatis [10]): 3.9 µg/mL (≈ 4.74 µM)
MIC (M. smegmatis [11]): 3.9 µg/mL and 4.73 µM
MIC Combined (antibiotic) (M. smegmatis [2]; in combination with ATRA-1A, 72 h): 1.95 µg/mL
MIC Combined (antibiotic) (M. smegmatis [2]; in combination with LL-37, 72 h): 0.97 µg/mL
MIC Combined (antibiotic) (M. smegmatis [2]; in combination with hBD3-Pep4, 72 h): 1.95 µg/mL
MIC Combined (antibiotic) (M. smegmatis [2]; in combination with mCRAMP, 72 h): 0.97 µg/mL
FIC (antibiotic) (M. smegmatis [2]; in combination with ATRA-1A): 0.5
FIC (antibiotic) (M. smegmatis [2]; in combination with LL-37): 0.25
FIC (antibiotic) (M. smegmatis [2]; in combination with hBD3-Pep4): 0.5
FIC (antibiotic) (M. smegmatis [2]; in combination with mCRAMP): 0.25
Fold vs. Rifampicin (μM) (M. smegmatis [8]; [15]): 1
Fold vs. Rifampicin (M. smegmatis mc^2155 [3]; [16]): 1.0

RGRRSSRRKK-NH2 [hBD3-Pep4]
MIC (M. smegmatis [8]): 48.65 µM
EC50 (M. smegmatis mc^2155 [3]; mc^2155, 3 h): 287 nM

O=CN(O)CCCP(=O)(O)O [Fosmidomycin]
EC50 (M. smegmatis mc^2155 [9]): 780 nM
EC50 (M. smegmatis mc^2155 [9]; pH 7.2): 0.14 µg/mL
Fold vs. Rifampicin (μM) (M. smegmatis [8]; [15]): 0.39
Fold vs. Rifampicin (M. smegmatis mc^2155 [3]; [16]): 0.20

GLLRKGGEKIGEKLKKIGQKIKNFFQKLVPQPEQ [mCRAMP]
Hemolytic activity [1]: no hemolytic activity
MIC (M. smegmatis [8]): 4.02 µM
EC50 (M. smegmatis mc^2155 [3]; mc^2155, 3 h): 44 nM
